Results taken from patent US20080021002A1, “VITAMIN D COMPOUNDS USED TO STABILIZE KIDNEY TRANSPLANTS” (priority 2000, published 2008).

Columns and labels:
[1] = tested on: kidney or kidney-pancreas transplant recipients; settings: human, in vivo
Source text: Methodology-retrospective analysis: The University of Wisconsin transplant database was screened to identify any kidney and/or kidney-pancreas transplant recipient who received 1,25-dihydroxyvitamin D3 (calcitriol)peri-post-transplant. Clinical and demographic variables were abstracted from the database. Those patients with adequate follow-up data were included in the analysis (≧1year follow-up data following the initiation of calcitriol). Demographic variables included race, age, and nay history of parathyroidectomy as these patients would likely be receiving calcitriol at time of transplantation. The effect of calcitriol treatment on renal function was analyzed using general linear mixed modeling of the change in slope of renal function prior to and following the start of calcitriol therapy. […] Adverse events and hypercalcemia were noted by identifiers in the database and by serum calcium levels as recorded in the database. Hypercalcemia was defined as a serum calcium >10.5 mg/dl.
The mean serum calcium in Group 1 and Group 2 patients was <10 mg/dl (9.6±0.9 mg/dl). There were no episodes of sustained hypercalcemia (>2 serial hypercalcemia values noted) or hypercalcemia events requiring hospitalization. There were no episodes of substained hematuria that could be directly attributable to hypercalcemia.

[2] = tested on: Smad 2 mRNA; test: Semi-quantitative RT-PCR of renal grafts, Smad 2 mRNA; format: in vivo, rat; settings: vs controls
Procedure: Semi-quantitative Reverse transcription polymerace chain reaction (RT-PCR): Following graft harvest a […] containing both cortex and medulla was snap frozen in liquid nitrogen. Semi-quantitative RT-PCR was performed as described. Little et al. Transplant Int. 12:393-401, 1999. Briefly, samples were homogenized then total RNA extracted with RNAzol B (Tel Test, Inc., Friendswood, Tex.) and reversed transcribed to cDNA according to manufacturer=s instructions (Superscript, Gibco BRL). PCR was performed over the linear range of amplification for both the gene of interest, e.g. TGFβ-1, and the ribosomal protein S26 as a control housekeeping gene. PCR conditions were chosen such that both products were amplified with similar efficiency. The following cycle parameters were employed: denaturing, 94° C. for 60 seconds; annealing, 61° C. for 60 seconds; and extension, 72° C. for 60 seconds. The amount of product was quantified using a phosphoimager (Storm 80) following gel electrophoresis and Vista green detection.

[3] = tested on: Smad 2 protein; test: Western blot of renal graft lysates, Smad 2 protein; format: in vivo, rat; settings: vs allogeneic untreated controls
Source text: (§1) Renal lysates were subjected to SDS-PAGE and transferred to nitrocellulose membranes. The membranes were probed with specific anti-Smad antibodies and appropriated HRP-conjugated secondary antibodies. Signal was detected with chemilumensnce. Following exposure, x-ray films were scanned and the amount of expression compared to that of tubulin as an internal control using Scion Image software. FIG. 4 (A) describes R-Smad expression. FIG. 4 (B) described I-Smad expression.
(§2) Western Blot Analysis: A portion of the snap frozen graft containing both cortex and medulla was ground with a mortar and pestle. For each 100 mg of tissue, the sample was resuspened in 400 ul of lysis buffer (10 mM Tris base, 150 mM NaCl, pH 8.0) containing protease inhibitors (P2714 1:1000. Sigma Chemical Co., St. Louis, Mo.) and homogenized (PowerGen 125, 1 minute). Triton X100 was then added to 1% and the sample place on ice, for 30 minutes. The solubilized sample was then spun at 4° C. for 15 minutes at 15,000×G. The supernatant was collected and stored at −80° C. Sample protein concentrations were determined using the Micro BCA assay (Pierce Chemical Co., Rockford, Ill.) according to manufacturer=s instructions, except that the assay was performed in half area plates combining 35 μl sample with 70 µl of reagent. […]

[4] = tested on: Smad 7 protein; test: Western blot of renal graft lysates, Smad 7 protein; format: in vivo, rat; settings: allogeneic grafts vs untreated allogeneic grafts (FIG. 4B)
Source text: as §1, §2

Episodes of sustained hematuria attributable to hypercalcemia [1]: no episodes
Structure (SMILES): C=C1/C(=C\C=C2/CCC[C@]3(C)[C@@H]([C@H](C)CCCC(C)(C)O)CC[C@@H]23)C[C@@H](O)C[C@@H]1O [calcitriol, 1,25-dihydroxyvitamin D3]
Smad 2 mRNA levels [2]: no significant change | Decrease in Smad 2 protein levels ([3]; 500 ng/rat/day (data not shown)): 208 fold | Decrease in Smad 2 protein levels ([3]; 1000 ng/rat/day, p=0.04): 516 fold | Increase in Smad 7 protein levels [4]: 4,3 fold
